Experimental data as given in patent US7037656B2, “Methods and compositions for identifying ligands for nuclear receptors” (priority 2000, dated 2006).

Assays:
Assay in all cases: Yeast 6x EcRE-lacZ β-galactosidase transactivation assay
Format in all cases: cell-based
[1] = target: T1, Cf EcR (Choristoneura fumiferana, UniProt O77240); conditions: RH 5992 10 μM, 4 hours, DMSO control 0.201
T1 construct: human ubiquitin (76 aa) (N, cleaved yes); expressed in transfected cells; host or cells: yeast (Saccharomyces cerevisiae), plasmid YEpCfEcR, CUP1 promoter
T1 sequence (O77240 1-513): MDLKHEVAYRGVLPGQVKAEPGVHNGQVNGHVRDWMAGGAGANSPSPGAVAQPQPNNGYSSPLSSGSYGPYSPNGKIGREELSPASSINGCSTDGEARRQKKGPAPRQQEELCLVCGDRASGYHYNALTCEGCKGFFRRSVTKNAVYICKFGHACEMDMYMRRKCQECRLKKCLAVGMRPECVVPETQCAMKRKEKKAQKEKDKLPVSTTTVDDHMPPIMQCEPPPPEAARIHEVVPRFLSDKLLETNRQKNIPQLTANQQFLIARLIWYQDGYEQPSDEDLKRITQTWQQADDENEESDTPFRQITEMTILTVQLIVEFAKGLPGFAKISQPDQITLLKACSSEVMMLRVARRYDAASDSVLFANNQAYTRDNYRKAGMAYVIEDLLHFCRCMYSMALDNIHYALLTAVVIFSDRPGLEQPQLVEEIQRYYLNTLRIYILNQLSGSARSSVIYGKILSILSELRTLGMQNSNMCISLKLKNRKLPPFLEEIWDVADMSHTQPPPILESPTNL
Method: (§1) Briefly, yeast cells are cultured in 5 mL of YPD liquid medium overnight at 30° C. The cell culture was diluted 1:20 in YPD media and further grown until cell density reached an O.D of 0.6. at OD600. The cells were pelleted by centrifugation and washed with 10 mL of TE+0.1M lithium acetate. Cells are then resuspended in 10 mL TE+0.1M lithium acetate and incubated at 30° C. for 1 hour. Cells are collected and resuspended in 0.5 mL of TE+ 0.1M lithium acetate. Aliquots of cells (50 μL), were incubated for 15 minutes at 30° C. with 1–2 μg plasmid DNA in the presence of 5 μg of denatured salmon sperm DNA as DNA carrier. In the case of co-transformation, the indicated plasmids were added simultaneously. 50% polyethyleneglycol of molecular weight 4000, diluted in TE, was added to a final concentration of 35%. DMSO was added to the transformation solution simultaneously to a final concentration 3%. The samples were mixed well by vortexing and incubated for an additional 30 minutes at 30° C. The cell mixture is then heated for 15 minutes at 42° C. Cells were then collected and plated onto appropriate yeast selective media. Transformants of 4 plasmids are selected on the complete media without tryptophan, uracil, leucine and histidine.
(§2) The yeast cells grown overnight in selective liquid media at 30° C. were diluted in prewarmed liquid selective media to 0.1 at OD600 (ODculture). 100 μl of the cell culture was spiked to each well of a.96-well microtiter plate. Ligand (2 μl diluted in DMSO) was added to each well giving a final concentration of DMSO of 2%. As a control, 2 μl of DMSO were also added to additional test wells. The final concentration of the tested compounds in the media is 10 μM. The cells were incubated in the presence of ligand in a shaker at 30° C. After 4 hours of incubation, 100 μl of 2× “Z” Sarcosine-ONPG buffer (120 mM Na2HPO4, 80 mM NaH2PO4, 20 mM KCl, 2 mM MgSO4, 100 mM beta-mercaptoethanol (Sigma), pH 7.0, 0.4% lauroyl sarcosine (Sigma), 4 mg/mL ONPG (Diagnostic Chemicals limited) was added to each well and the plate was further incubated at 37° C. The 2× “Z” Sarcosine-ONPG buffer is freshly prepared or stored at −20° C. prior to use. After incubation at 37° C. for 1 hour. The reaction was stopped by adding 100 μL of quenching solution 0.5 M Na2CO3 and OD405 (ODreaction) and beta-galactosidase activity was measured in a micro plate reader (Biotek) at a wave length of 405–450 nanometers. The effect of copper on enhancement of the transactivation response mediated by the ligands tested was studied by adding CuSO4 to the media to a final concentration of 10 μM.
(§3) Using the transformation method described above, yeast were co-transformed with a reporter gene as shown in FIG. 2 and the expression vector encoding the full-length Choristoneura fumiferana ecdysone receptor, Cf EcR (FIG. 5A) in the presence or absence of the Cf EcR heterodimer partner, Cf USP (FIG. 6A). Transformed cells were incubated with DMSO alone as a control, or with a proprietary ecdysone receptor ligand (Rohm & Haas RH5992) at final concentration 10 μM for 4 hours. The samples were then assayed for β-galactosidase activity as described above. […] However, as with all systems tested, fruit fly, mosquito and spruce bud worm, co-expression of CfEcR with CfUSP did give rise to constitutive transactivation of reporter gene. […] However, deletion of the A/B domain of the CfUSP abolished this constitutive transactivation of the reporter gene. Thus, in the spruce bud worm system, constitutive transcription is not observed when CfEcR/Cf ΔAB USP or Cf ΔAB EcR/Cf ΔAB USP are co-expressed. […] Ligand dependent transactivation was observed only in the presence of the co-activator GRIP1. We also observed stronger ligand dependent activity for the Cf ΔA/B EcR+Cf ΔA/B USP+GRIP1 combination than the CfEcR+CfΔA/B USP+GRIP1 combination.

[2] = target: T2, Cf EcR + Cf ΔA/B USP (Choristoneura fumiferana, UniProt O77240); conditions: RH 5992 10 μM, 4 hours, DMSO control 0.205
T2 construct: human ubiquitin (76 aa) (N, cleaved yes); expressed in transfected cells; host or cells: yeast (Saccharomyces cerevisiae)
T2 sequence (O77240 1-513, stated change not applied): as the sequence (O77240 1-513) above
T2 sequence (O76202 with tags, fused parts or gaps partner): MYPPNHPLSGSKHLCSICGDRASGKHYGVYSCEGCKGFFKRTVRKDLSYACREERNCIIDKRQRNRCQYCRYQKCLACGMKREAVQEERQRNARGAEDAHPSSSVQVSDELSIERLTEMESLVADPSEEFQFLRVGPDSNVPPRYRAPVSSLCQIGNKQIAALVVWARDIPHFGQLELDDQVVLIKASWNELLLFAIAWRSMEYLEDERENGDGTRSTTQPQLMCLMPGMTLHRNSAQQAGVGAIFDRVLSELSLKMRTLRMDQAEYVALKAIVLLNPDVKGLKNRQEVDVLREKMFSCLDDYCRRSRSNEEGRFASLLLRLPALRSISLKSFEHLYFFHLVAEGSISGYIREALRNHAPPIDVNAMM
Method: as §1, §2, §3

[3] = target: T3, Cf EcR + Cf ΔA/B USP + GRIP1 (Choristoneura fumiferana, UniProt O77240)
T3 construct: human ubiquitin (76 aa) (N, cleaved yes); expressed in transfected cells; host or cells: yeast (Saccharomyces cerevisiae); GRIP1 from pRS423-ADH1GRIP812
T3 sequence (O77240 1-513, stated change not applied): as the sequence (O77240 1-513) above
T3 sequence (O76202 with tags, fused parts or gaps partner): as the sequence (O76202 with tags, fused parts or gaps partner) above
Method: as §1, §2, §3

[4] = target: T4, Cf EcR + CfUSP (Choristoneura fumiferana, UniProt O77240); conditions: RH 5992 10 μM, 4 hours, DMSO control 2.734
T4 construct: human ubiquitin (76 aa) (N, cleaved yes); expressed in transfected cells; host or cells: yeast (Saccharomyces cerevisiae)
T4 sequence (O77240 1-513): as the sequence (O77240 1-513) above
T4 sequence (O76202 whole entry partner): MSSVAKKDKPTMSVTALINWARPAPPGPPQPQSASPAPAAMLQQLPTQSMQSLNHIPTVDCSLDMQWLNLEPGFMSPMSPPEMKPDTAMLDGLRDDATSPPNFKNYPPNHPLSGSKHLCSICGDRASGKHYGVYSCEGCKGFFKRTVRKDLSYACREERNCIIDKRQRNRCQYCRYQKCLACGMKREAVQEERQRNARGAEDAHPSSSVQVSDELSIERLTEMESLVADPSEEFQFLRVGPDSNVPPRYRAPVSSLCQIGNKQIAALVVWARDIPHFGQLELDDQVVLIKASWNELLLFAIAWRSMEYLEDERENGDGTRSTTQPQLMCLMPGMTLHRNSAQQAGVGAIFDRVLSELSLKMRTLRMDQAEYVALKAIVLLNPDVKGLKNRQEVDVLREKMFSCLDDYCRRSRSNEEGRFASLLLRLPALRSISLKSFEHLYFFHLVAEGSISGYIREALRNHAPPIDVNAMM
Method: as §1, §2, §3

[5] = target: T5, Cf USP (Choristoneura fumiferana, UniProt O76202); conditions: RH 5992 10 μM, 4 hours, DMSO control 0.233
T5 construct: human ubiquitin (76 aa) (N, cleaved yes); expressed in transfected cells; host or cells: yeast (Saccharomyces cerevisiae), plasmid pRS425CfUSP, CUP1 promoter
T5 sequence (O76202 whole entry): as the sequence (O76202 whole entry partner) above
Method: as §1, §2, §3

[6] = target: T6, Cf ΔA/B EcR + Cf USP (Choristoneura fumiferana, UniProt O77240); conditions: RH 5992 10 μM, 4 hours, DMSO control 2.684
T6 construct: human ubiquitin (76 aa) (N, cleaved yes); expressed in transfected cells; host or cells: yeast (Saccharomyces cerevisiae)
T6 sequence (O77240 entry or part of it, stated change not applied): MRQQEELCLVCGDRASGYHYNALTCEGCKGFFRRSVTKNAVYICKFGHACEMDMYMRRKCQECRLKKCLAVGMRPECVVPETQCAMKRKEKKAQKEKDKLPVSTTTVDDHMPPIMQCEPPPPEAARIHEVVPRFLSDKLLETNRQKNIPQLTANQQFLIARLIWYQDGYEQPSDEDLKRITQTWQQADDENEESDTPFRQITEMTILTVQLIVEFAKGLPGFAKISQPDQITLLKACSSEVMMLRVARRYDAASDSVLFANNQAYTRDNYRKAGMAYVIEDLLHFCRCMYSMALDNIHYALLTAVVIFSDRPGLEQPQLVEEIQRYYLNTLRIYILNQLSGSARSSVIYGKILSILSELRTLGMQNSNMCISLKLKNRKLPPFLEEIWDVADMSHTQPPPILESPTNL
T6 sequence (O76202 whole entry partner): as the sequence (O76202 whole entry partner) above
Method: as §1, §2, §3

[7] = target: T7, Cf ΔA/B EcR + Cf ΔA/B USP (Choristoneura fumiferana, UniProt O77240); conditions: RH 5992 10 μM, 4 hours, DMSO control 0.209
T7 construct: human ubiquitin (76 aa) (N, cleaved yes); expressed in transfected cells; host or cells: yeast (Saccharomyces cerevisiae)
T7 sequence (O77240 entry or part of it, stated change not applied): as the sequence (O77240 entry or part of it, stated change not applied) above
T7 sequence (O76202 with tags, fused parts or gaps partner): as the sequence (O76202 with tags, fused parts or gaps partner) above
Method: as §1, §2, §3

For `CCc1ccc(C(=O)NN(C(=O)c2cc(C)cc(C)c2)C(C)(C)C)cc1` [RH 5992, tebufenozide], the β-galactosidase activity [1] was 0.175, the β-galactosidase activity [2] was 0.241 and the β-galactosidase activity ([3]; RH 5992 10 μM, 4 hours, yeast, Cf EcR + Cf ΔA/B USP + GRIP1, DMSO control 0.223) was 0.492. For the same compound, the “response of the complex to the ligand (in words)” value ([3]; complex CfEcR:CfΔA/B USP:GRIP1) was “responsive, but not very sensitive”, the β-galactosidase activity [4] was 3.000 and the β-galactosidase activity [5] was 0.230. It also gave a β-galactosidase activity [6] of 3.000 and a β-galactosidase activity [7] of 0.234.
